Read-outs that look alike come from different tables or passages of the source.
Tested on: HCT116 WT
Test: Proliferation of HCT116 colorectal cell line, Cell TiterGlo
Assay type: cell-based, human
Experimental: Briefly, compounds were tested for their effect on proliferation of HCT116 colorectal cell lines using Cell TiterGlo (Promega). Each compound was tested in a 10-point dose response experiment in triplicate. Multiple values in the column titled HCT116 WT reflect separate independent experiments. The three columns titled “HCT116 WT (repeat)”, “HCT116-CGN2KO” and “HCT116 WT+ISRIB” provide data for selected compounds that were tested simultaneously under three conditions. The HCT116 WT column lists IC50 against the wild type HCT116 colorectal cancer cell line. The HCT116-CGN2KO lists IC50 data for cells in which one component of the integrated stress response, GCN2, has been knocked out using CRISPR technology.

[1] = Homo sapiens, HCT-116, wild type HCT116, 10-point dose response in triplicate, multiple values = separate independent experiments, read-out: HCT116 IC50 (uM) HCT116 WT
[2] = wild type HCT116, 10-point dose response in triplicate, multiple values = separate independent experiments
[3] = wild type HCT116, 10-point dose response in triplicate, multiple values = separate independent experiments, read-out: HCT116 IC50 (uM) HCT116 WT

SMILES	IC50 [1]	also measured
COc1ccc(C(=O)Nc2cc(-c3ccc(N)cc3)nn2C)cc1 [SW388717, N-(3-(4-Aminophenyl)-1-methyl-1H-pyrazol-5-yl)-4-methoxybenzamide]		HCT116 IC50 (uM) HCT116 WT [2]: inactive
Cc1ncccc1C(=O)Nc1ccc(-c2cc(NC(=O)C3CCOCC3)n(C)n2)cc1 [SW394746, 2-Methyl-N-(4-(1-methyl-5-(tetrahydro-2H-pyran-4-carboxamido)-1H-pyrazol-3-yl)phenyl)nicotinamide]	0.13 µM	
Cn1nc(-c2ccc(NC(=O)N3CCCCC3)cc2)cc1NC(=O)c1ccccc1 [SW394601, N-(4-(5-benzamido-1-methyl-1H-pyrazol-3-yl)phenyl)piperidine-1-carboxamide]		IC50 [3]: 7.4 µM
Cn1nc(-c2ccc(NC(=O)c3cccnc3C(F)(F)F)cc2)cc1NC(=O)c1ccccc1F [SW394629, N-(4-(5-(2-Fluorobenzamido)-1-methyl-1H-pyrazol-3-yl)phenyl)-2-(trifluoromethyl)nicotinamide]	0.017 µM	
Cn1nc(-c2ccc(NC(=O)c3ccccc3Cl)cc2)cc1NC(=O)[C@H]1CCC[C@@H](N)C1 (single isomer, unassigned) [SW394869-isomer 1]	0.04 µM	
Cn1nc(-c2ccc(NC(=O)c3cccc(CN)c3Cl)cc2)cc1NC(=O)c1ccccc1Cl [SW394771, 3-(aminomethyl)-2-chloro-N-(4-(5-(2-chlorobenzamido)-1-methyl-1H-pyrazol-3-yl)phenyl)benzamide]	0.086 µM	
Cn1nc(-c2ccc(NC(=O)N3CCOCC3)cc2)cc1NC(=O)c1ccccc1 [SW394892-1, N-(4-(5-benzamido-1-methyl-1H-pyrazol-3-yl)phenyl)morpholine-4-carboxamide]	> 5 µM	
C#Cc1cccc(C(=O)Nc2cc(-c3ccc(NC(=O)c4cccc(C5(C(F)(F)F)N=N5)c4)cc3)nn2C)c1 [SW393243, 3-Ethynyl-N-(1-methyl-3-(4-(3-(3-(trifluoromethyl)-3H-diazirin-3-yl)benzamido)phenyl)-1H-pyrazol-5-yl)benzamide]	17 µM	
C#Cc1cccc(C(=O)Nc2cc(-c3ccc(NC(=O)c4ccc(C5(C(F)(F)F)N=N5)cc4)cc3)nn2C)c1 [SW393242, 3-Ethynyl-N-(1-methyl-3-(4-(4-(3-(trifluoromethyl)-3H-diazirin-3-yl)benzamido)phenyl)-1H-pyrazol-5-yl)benzamide]	1.35 µM	
C#Cc1cccc(C(=O)Nc2cc(-c3ccc(NC(=O)c4ccccc4N=[N+]=[N-])cc3)nn2C)c1 [SW393185, 2-Azido-N-(4-(5-(3-ethynylbenzamido)-1-methyl-1H-pyrazol-3-yl)phenyl)benzamide]	0.13 µM	
COc1ccc(C(=O)Nc2cc(-c3ccc(NC(=O)OC(C)(C)C)cc3)nn2C)cc1 [SW388709, tert-Butyl-(4-(5-(4-methoxybenzamido)-1-methyl-1H-pyrazol-3-yl)phenyl)carbamate]	16 µM	
Cn1nc(-c2ccc(NC(=O)c3ccccc3Cl)cc2)cc1NC(=O)c1cccc(OCCNC(=S)Nc2ccc(-c3c4ccc(=O)cc-4oc4cc(O)ccc34)c(C(=O)O)c2)c1 [SW394972, 5-(3-(2-(3-((3-(4-(2-chlorobenzamido)phenyl)-1-methyl-1H-pyrazol-5-yl)carbamoyl)phenoxy)ethyl)thioureido)-2-(6-hydroxy-3-oxo-3H-xanthen-9-yl)benzoic acid]	1.3 µM	
Cc1ncncc1C(=O)Nc1ccc(-c2cc(NC(=O)c3ccccc3)n(C)n2)cc1 [SW394598, N-(4-(5-Benzamido-1-methyl-1H-pyrazol-3-yl)phenyl)-4-methylpyrimidine-5-carboxamide]	0.55 µM	
O=C(Nc1cccc(-c2ccc(NC(=O)c3ccccc3Cl)cc2)c1)c1ccccc1 [SW394484, N-(3′-benzamido-[1,1′-biphenyl]-4-yl)-2-chlorobenzamide]	3.94 µM	
C#CCOc1ccccc1C(=O)Nc1ccc(-c2cc(NC(=O)c3cccc(N=[N+]=[N-])c3)n(C)n2)cc1 [SW393066, N-(4-(5-(3-Azidobenzamido)-1-methyl-1H-pyrazol-3-yl)phenyl)-2-(prop-2-yn-1-yloxy)benza-mide]		IC50 [3]: 9.4 µM; IC50 (wild type HCT116, tested simultaneously with GCN2KO and +ISRIB, read-out: HCT116 IC50 (uM) HCT116 WT (repeat)): 7.18 µM
C#CCOCc1ccccc1C(=O)Nc1ccc(-c2cc(NC(=O)c3cccc(N=[N+]=[N-])c3)n(C)n2)cc1 [SW393280, N-(4-(5-(3-azidobenzamido)-1-methyl-1H-pyrazol-3-yl)phenyl)-2-((prop-2-yn-1-yloxy)methyl)benzamide]	0.12 µM	
CN1CCN(C(=O)Nc2cc(-c3ccc(NC(=O)c4ccccc4Cl)cc3)nn2C)CC1 [SW394875, N-(3-(4-(2-Chlorobenzamido)phenyl)-1-methyl-1H-pyrazol-5-yl)-4-methylpiperazine-1-carb-oxamide]		HCT116 IC50 (uM) HCT116 WT [2]: inactive
Cn1nc(-c2ccc(NC(=O)c3ccccc3Cl)cc2)cc1NC(=O)C1CCCCCC1 [SW394599, N-(3-(4-(2-Chlorobenzamido)phenyl)-1-methyl-1H-pyrazol-5-yl)cycloheptanecarboxamide]	0.05 µM	

Now from value to compound, other results behind:

IC50 [1]	SMILES	also measured
0.049 µM	Cn1nc(-c2ccc(NC(=O)c3ccccc3Cl)cc2)cc1NC(=O)C1CCC(F)(F)CC1 [SW394602, 2-Chloro-N-(4-(5-(4,4-difluorocyclohexane-1-carboxamido)-1-methyl-1H-pyrazol-3-yl)phen-yl)benzamide]	
0.32 µM	Cn1nc(-c2ccc(NC(=O)C3CCCC3)cc2)cc1NC(=O)c1ccccc1 [SW394488, N-(3-(4-(Cyclopentanecarboxamido)phenyl)-1-methyl-1H-pyrazol-5-yl)benzamide]	
0.12 µM	Cn1nc(-c2ccc(NC(=O)c3ccccc3Cl)cc2)cc1NC(=O)C1CCCC(NC(=O)OC(C)(C)C)C1 (single isomer, unassigned) [SW394868-isomer 2]	
0.05 µM	Cn1nc(-c2ccc(NC(=O)c3ccncc3Cl)cc2)cc1NC(=O)c1ccccc1 [SW394446, N-(4-(5-Benzamido-1-methyl-1H-pyrazol-3-yl)phenyl)-3-chloroisonicotinamide]	
~0.01 µM	Cn1nc(-c2ccc(NC(=O)c3ccccc3Cl)cc2)cc1NC(=O)c1ccccc1F [SW393244, 2-chloro-N-(4-(5-(2-fluorobenzamido)-1-methyl-1H-pyrazol-3-yl)phenyl)benzamide]	
0.071 µM	Cn1nc(-c2ccc(NC(=O)c3ccccc3COCCNC(=O)CCCC[C@H]3SC[C@H]4NC(=O)N[C@H]43)cc2)cc1NC(=O)c1ccccc1 [SW394656, N-(4-(5-benzamido-1-methyl-1H-pyrazol-3-yl)phenyl)-2-((2-(5-((3aR,4R,6aS)-2-oxohexahydro-1H-thieno[3,4-d]imidazol-4-yl)pentanamido)ethoxy)methyl)benzamide]	
0.107 µM	Cn1nc(-c2ccc(NC(=O)c3ccccc3-c3cncnc3)cc2)cc1NC(=O)c1ccccc1 [SW394485, N-(4-(5-Benzamido-1-methyl-1H-pyrazol-3-yl)phenyl)-2-(pyrimidin-5-yl)benzamide]	
0.28 µM	Cn1nc(-c2ccc(NC(=O)c3ccccc3Cl)cc2Cl)cc1NC(=O)c1ccccc1 [SW393294, N-(4-(5-benzamido-1-methyl-1H-pyrazol-3-yl)-3-chlorophenyl)-2-chlorobenzamide]	
0.62 µM	O=C(Nc1cc(-c2ccc(NC(=O)c3ccccc3Cl)cc2)nn1Cc1ccccc1)c1ccccc1 [SW393215, N-(4-(5-Benzamido-1-benzyl-1H-pyrazol-3-yl)phenyl)-2-chlorobenzamide]	
1.9 µM	O=C(Nc1nc(-c2ccc(NC(=O)c3ccccc3Cl)cc2)cs1)c1ccccc1 [SW393296, N-(4-(2-Benzamidothiazol-4-yl)phenyl)-2-chlorobenzamide]	
0.05 µM	Cn1nc(-c2ccc(NC(=O)c3ccccc3Cl)cc2)cc1NC(=O)c1cccc(OCCN)c1 [SW394970, N-(4-(5-(3-(2-aminoethoxy)benzamido)-1-methyl-1H-pyrazol-3-yl)phenyl)-2-chlorobenzamide]	
0.02 µM	Cn1nc(-c2ccc(NC(=O)c3cccnc3Cl)cc2)cc1NC(=O)c1ccccc1 [SW394443, N-(4-(5-Benzamido-1-methyl-1H-pyrazol-3-yl)phenyl)-2-chloronicotinamide]	
0.25 µM	Cc1ccncc1C(=O)Nc1ccc(-c2cc(NC(=O)c3ccccc3)n(C)n2)cc1 [SW394519, N-(4-(5-Benzamido-1-methyl-1H-pyrazol-3-yl)phenyl)-4-methylnicotinamide]	
0.77 µM	Cn1nc(-c2ccc(NC(=O)C3CCCO3)cc2)cc1NC(=O)c1ccccc1 (single isomer, unassigned) [SW394516 (isomer 2)]	
1.2 µM	Cn1nc(-c2ccc(NC(=O)c3ccccc3C#CCNC(=O)OC(C)(C)C)cc2)cc1NC(=O)c1ccccc1 [SW394544, tert-butyl(3-(2-((4-(5-benzamido-1-methyl-1H-pyrazol-3-yl)phenyl)carbamoyl)phenyl)prop-2-yn-1-yl)carbamate]	
0.02 µM	Cn1nc(-c2ccc(NC(=O)c3ccccc3Cl)cc2)cc1NC(=O)c1ccccc1Br [SW393218, 2-bromo-N-(3-(4-(2-chlorobenzamido)phenyl)-1-methyl-1H-pyrazol-5-yl)benzamide]	
0.07 µM	Cc1c(-c2ccc(NC(=O)c3ccccc3Cl)cc2)nn(C)c1NC(=O)c1ccccc1 [SW393216, N-(4-(5-Benzamido-1,4-dimethyl-1H-pyrazol-3-yl)phenyl)-2-chlorobenzamide]	
> 50 µM	Cn1nc(C2CCC(NC(=O)c3ccccc3Cl)CC2)cc1NC(=O)c1ccccc1 (centres unmarked) [SW394444, N-(4-(5-benzamido-1-methyl-1H-pyrazol-3-yl)cyclohexyl)-2-chlorobenzamide]	
0.044 µM	Cn1nc(-c2ccc(CC(=O)c3ccccc3CCCNC(=O)CCCC[C@@H]3CC[C@]4(C)CCC[C@H]34)cc2)cc1CC(=O)c1ccccc1 [SW394657]	
